Test results: patent publication US20260284115A1, “THERAPEUTICS AND METHODS” (CAMBRIDGE ENTERPRISE LIMITED, priority 2022, published 2026)

Tested on: NALCN
Assay: Circulating ZsGreen+ cells (CZCs) in peripheral blood of non-tumour-bearing mice after NALCN blockade
Type: in vivo
Conditions: Prom1^CreERT2/Lacz; Rosa26^ZSG; Nalcn^+/+ mice without oncogenic alleles, n=10; FIG. 1a
Procedure: Peripheral blood (500 μl-1 ml) was harvested from mice at autopsy into 10 μl of 0.5M EDTA, diluted in PBS and assessed by MACSQuant Analyzer (Miltenyi Biotech Inc.) for ZSgreen expression (525/50 nm [FITC] vs 614/50 nm [PI]). Cells for single cell RNA sequencing and tail vein injection were sorted using a BD FACSAria II Cell Sorter (BD Biosciences) excitation at 525/50 nm (FITC) vs 614/50 nm (PI). Non-tamoxifen induced mouse peripheral blood served as a negative control to set gate parameters. Twenty-five thousand ZSG^+ cells were sorted and injected into recipient NOD SCID gamma mice (Charles River) and aged. For serial dilution assessment of tCZC metastasis initiation, tCZCs were isolated from donor tumour-bearing via FACS based on ZSGreen expression and placed into culture medium. Culture medium: Advanced DMEM/F12 (31330038, ThermoFisher), 2 mM L-glutamine (25030024, ThermoFisher), B27 (12587010, ThermoFisher), N2 (A1370701, ThermoFisher), containing growth factors (50 ng/ml EGF [Peprotech], 100 ng/ml bFGF [100-18c, Peprotech] and 1% FBS (10500064, ThermoFisher). Cells were grown at 37° C. in 5% CO2. Recipient NOD SCID gamma mice (Charles River) were injected with either 10, 100, 1,000 or 10,000 tCZC cells via tail-vein injection and aged. Full autopsy and tissue harvesting were performed as described above.

SMILES: [Cl][Gd]([Cl])[Cl] [Gadolinium chloride]
- numbers of CZCs (circulating ZSG+ cells) in peripheral blood; stem cell-like cell shedding: significantly increased
